Key:
Test in all cases: KINOMEscan binding assay
Conditions in all cases: read-out: % Ctrl @ 10000 nM
[1] = molecular target: ERBB4 (Homo sapiens, UniProt Q15303)
[2] = molecular target: PIK3CA (Homo sapiens, UniProt P42336)
[3] = molecular target: ACVR1B (Homo sapiens, UniProt P36896)
[4] = molecular target: PIK3CD (Homo sapiens, UniProt O00329)
[5] = molecular target: PHKG2 (Homo sapiens, UniProt P15735)
[6] = molecular target: CHEK1 (Homo sapiens, UniProt O14757)
[7] = molecular target: PIP5K1A (Homo sapiens, UniProt Q99755)
[8] = molecular target: CSNK1A1L (Homo sapiens, UniProt Q8N752)
[9] = molecular target: YES (Homo sapiens, UniProt P07947)
[10] = molecular target: TRKB (Homo sapiens, UniProt Q16620)
[11] = molecular target: RSK1 Kin.Dom.1-N-terminal (Homo sapiens, UniProt Q15418)
[12] = molecular target: HUNK (Homo sapiens, UniProt P57058)
[13] = molecular target: TLK1 (Homo sapiens, UniProt Q9UKI8)
[14] = molecular target: ANKK1 (Homo sapiens, UniProt Q8NFD2)
ANKK1, sequence (Q8NFD2 whole entry): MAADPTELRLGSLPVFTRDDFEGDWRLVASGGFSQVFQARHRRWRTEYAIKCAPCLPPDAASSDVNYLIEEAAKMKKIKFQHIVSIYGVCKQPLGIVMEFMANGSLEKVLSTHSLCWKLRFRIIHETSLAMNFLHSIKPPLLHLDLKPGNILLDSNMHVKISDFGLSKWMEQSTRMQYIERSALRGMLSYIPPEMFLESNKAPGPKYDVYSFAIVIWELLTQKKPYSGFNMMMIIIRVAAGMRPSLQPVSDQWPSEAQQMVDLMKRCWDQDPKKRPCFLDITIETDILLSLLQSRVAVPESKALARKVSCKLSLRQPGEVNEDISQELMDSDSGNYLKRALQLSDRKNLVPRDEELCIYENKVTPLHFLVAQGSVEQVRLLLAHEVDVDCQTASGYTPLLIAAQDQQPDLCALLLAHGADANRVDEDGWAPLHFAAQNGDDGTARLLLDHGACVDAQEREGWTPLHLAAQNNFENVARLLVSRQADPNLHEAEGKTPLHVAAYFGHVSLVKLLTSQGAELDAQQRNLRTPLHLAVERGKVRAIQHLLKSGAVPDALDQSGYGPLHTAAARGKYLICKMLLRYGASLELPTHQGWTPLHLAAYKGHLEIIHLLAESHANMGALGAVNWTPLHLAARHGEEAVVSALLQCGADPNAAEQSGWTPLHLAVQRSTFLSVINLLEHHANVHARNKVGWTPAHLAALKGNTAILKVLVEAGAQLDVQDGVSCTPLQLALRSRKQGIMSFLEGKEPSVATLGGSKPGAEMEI

[15] = molecular target: T1, MAP4K4 (Homo sapiens, UniProt O95819)
T1 construct: T7 phage fusion (most assays) or DNA label after HEK293 expression; purchased DiscoveRx (KINOMEscan, LeadHunter Discovery services); host or cells: T7 phage in E. coli (BL21-derived) or HEK293

[16] = molecular target: TIE2 (Homo sapiens, UniProt Q02763)
TIE2, sequence (Q02763 23-1124): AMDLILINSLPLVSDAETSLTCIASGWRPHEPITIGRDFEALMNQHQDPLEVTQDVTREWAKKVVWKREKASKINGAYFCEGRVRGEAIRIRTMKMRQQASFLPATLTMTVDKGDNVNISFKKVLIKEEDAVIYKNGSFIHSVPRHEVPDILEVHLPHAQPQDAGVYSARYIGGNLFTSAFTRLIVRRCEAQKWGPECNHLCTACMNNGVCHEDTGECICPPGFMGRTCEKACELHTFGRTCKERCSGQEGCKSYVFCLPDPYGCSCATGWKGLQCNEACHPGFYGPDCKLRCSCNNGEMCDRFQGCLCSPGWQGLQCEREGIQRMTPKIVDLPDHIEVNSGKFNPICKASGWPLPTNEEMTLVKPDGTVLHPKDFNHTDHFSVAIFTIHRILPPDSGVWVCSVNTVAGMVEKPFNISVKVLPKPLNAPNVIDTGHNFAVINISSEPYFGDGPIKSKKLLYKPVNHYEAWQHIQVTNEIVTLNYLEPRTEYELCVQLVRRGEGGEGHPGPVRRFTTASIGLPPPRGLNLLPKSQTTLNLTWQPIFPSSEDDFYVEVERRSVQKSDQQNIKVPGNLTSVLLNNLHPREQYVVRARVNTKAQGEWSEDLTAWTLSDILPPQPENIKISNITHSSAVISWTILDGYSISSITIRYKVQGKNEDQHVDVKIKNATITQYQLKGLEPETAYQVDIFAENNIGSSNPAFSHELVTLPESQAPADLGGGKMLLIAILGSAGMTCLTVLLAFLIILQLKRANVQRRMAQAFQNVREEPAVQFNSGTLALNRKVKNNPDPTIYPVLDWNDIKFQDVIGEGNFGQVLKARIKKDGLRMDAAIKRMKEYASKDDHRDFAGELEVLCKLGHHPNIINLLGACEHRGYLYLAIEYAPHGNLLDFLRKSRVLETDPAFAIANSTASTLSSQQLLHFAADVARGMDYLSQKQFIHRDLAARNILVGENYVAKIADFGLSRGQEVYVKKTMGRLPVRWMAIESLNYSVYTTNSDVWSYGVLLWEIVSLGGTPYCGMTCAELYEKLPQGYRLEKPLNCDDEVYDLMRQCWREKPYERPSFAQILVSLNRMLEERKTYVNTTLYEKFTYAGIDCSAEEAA

[17] = molecular target: MLK1 (Homo sapiens, UniProt P80192)
[18] = molecular target: p38-delta (Homo sapiens, UniProt O15264)
[19] = molecular target: TAK1 (Homo sapiens, UniProt O43318)
[20] = molecular target: PCTK3 (Homo sapiens, UniProt Q07002)
[21] = molecular target: ADCK4 (Homo sapiens, UniProt Q96D53)
ADCK4, sequence (Q96D53 whole entry): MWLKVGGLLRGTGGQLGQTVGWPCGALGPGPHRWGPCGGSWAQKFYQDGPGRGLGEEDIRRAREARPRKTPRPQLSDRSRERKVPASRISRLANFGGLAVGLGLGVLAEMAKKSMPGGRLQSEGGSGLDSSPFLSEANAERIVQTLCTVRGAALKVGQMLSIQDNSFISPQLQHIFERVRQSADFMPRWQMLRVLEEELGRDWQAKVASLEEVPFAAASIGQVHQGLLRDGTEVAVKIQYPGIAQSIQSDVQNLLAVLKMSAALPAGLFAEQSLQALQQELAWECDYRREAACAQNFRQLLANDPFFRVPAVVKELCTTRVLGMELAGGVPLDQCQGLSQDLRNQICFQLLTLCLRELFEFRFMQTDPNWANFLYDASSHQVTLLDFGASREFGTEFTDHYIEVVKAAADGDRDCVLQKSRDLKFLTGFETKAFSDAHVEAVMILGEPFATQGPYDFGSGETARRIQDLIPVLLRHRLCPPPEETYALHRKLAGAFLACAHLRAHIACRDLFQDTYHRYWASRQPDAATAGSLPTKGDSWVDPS

[22] = molecular target: DLK (Homo sapiens, UniProt Q12852)
[23] = molecular target: MUSK (Homo sapiens, UniProt O15146)
[24] = molecular target: SRC (Homo sapiens, UniProt P12931)
SRC, sequence (P12931 whole entry): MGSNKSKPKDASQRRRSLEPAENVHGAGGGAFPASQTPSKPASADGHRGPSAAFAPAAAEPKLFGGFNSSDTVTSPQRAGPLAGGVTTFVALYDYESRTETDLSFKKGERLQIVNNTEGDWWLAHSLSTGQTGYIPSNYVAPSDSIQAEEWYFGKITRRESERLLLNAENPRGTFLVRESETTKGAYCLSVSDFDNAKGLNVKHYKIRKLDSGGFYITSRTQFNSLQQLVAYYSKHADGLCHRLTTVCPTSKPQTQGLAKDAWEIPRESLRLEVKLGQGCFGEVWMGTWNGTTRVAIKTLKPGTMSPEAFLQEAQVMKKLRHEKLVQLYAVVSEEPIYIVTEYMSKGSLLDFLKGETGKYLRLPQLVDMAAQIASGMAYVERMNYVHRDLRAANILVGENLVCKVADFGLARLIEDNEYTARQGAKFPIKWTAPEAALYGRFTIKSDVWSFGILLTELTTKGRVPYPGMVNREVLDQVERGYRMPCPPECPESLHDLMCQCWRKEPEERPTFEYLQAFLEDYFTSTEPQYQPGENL

[25] = molecular target: EPHA8 (Homo sapiens, UniProt P29322)
[26] = molecular target: PIP5K1C (Homo sapiens, UniProt O60331)
[27] = molecular target: CAMK2D (Homo sapiens, UniProt Q13557)
[28] = molecular target: DDR1 (Homo sapiens, UniProt Q08345)
[29] = molecular target: MEK2 (Homo sapiens, UniProt P36507)
[30] = molecular target: EGFR (L858R) (Homo sapiens, UniProt P00533, L858R)
[31] = molecular target: ACVR2B (Homo sapiens, UniProt Q13705)
ACVR2B, sequence (Q13705 19-512): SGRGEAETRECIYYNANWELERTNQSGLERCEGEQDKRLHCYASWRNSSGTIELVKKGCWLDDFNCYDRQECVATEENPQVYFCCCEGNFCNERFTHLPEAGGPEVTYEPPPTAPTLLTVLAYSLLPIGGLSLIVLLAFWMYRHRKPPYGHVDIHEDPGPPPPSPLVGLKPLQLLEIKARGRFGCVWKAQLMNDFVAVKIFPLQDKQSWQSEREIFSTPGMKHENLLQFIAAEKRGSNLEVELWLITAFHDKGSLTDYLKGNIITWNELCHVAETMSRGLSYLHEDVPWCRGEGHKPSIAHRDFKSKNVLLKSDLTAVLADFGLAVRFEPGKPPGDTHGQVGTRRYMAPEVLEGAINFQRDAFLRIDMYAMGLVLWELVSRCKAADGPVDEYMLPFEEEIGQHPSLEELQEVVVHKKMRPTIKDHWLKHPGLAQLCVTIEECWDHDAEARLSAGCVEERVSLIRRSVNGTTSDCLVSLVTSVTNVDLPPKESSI

[32] = molecular target: TAOK2 (Homo sapiens, UniProt Q9UL54)
[33] = molecular target: FYN (Homo sapiens, UniProt P06241)
[34] = molecular target: PLK2 (Homo sapiens, UniProt Q9NYY3)
[35] = molecular target: DYRK2 (Homo sapiens, UniProt Q92630)
[36] = molecular target: CLK1 (Homo sapiens, UniProt P49759)
[37] = molecular target: MEK4 (Homo sapiens, UniProt P45985)
[38] = molecular target: CDK9 (Homo sapiens, UniProt P50750)
[39] = molecular target: CASK (Homo sapiens, UniProt O14936)
[40] = molecular target: MST4 (Homo sapiens, UniProt Q9P289)
[41] = molecular target: PRKCI (Homo sapiens, UniProt P41743)
[42] = molecular target: NEK4 (Homo sapiens, UniProt P51957)
[43] = molecular target: CSF1R (Homo sapiens, UniProt P07333)
CSF1R, sequence (P07333 20-972): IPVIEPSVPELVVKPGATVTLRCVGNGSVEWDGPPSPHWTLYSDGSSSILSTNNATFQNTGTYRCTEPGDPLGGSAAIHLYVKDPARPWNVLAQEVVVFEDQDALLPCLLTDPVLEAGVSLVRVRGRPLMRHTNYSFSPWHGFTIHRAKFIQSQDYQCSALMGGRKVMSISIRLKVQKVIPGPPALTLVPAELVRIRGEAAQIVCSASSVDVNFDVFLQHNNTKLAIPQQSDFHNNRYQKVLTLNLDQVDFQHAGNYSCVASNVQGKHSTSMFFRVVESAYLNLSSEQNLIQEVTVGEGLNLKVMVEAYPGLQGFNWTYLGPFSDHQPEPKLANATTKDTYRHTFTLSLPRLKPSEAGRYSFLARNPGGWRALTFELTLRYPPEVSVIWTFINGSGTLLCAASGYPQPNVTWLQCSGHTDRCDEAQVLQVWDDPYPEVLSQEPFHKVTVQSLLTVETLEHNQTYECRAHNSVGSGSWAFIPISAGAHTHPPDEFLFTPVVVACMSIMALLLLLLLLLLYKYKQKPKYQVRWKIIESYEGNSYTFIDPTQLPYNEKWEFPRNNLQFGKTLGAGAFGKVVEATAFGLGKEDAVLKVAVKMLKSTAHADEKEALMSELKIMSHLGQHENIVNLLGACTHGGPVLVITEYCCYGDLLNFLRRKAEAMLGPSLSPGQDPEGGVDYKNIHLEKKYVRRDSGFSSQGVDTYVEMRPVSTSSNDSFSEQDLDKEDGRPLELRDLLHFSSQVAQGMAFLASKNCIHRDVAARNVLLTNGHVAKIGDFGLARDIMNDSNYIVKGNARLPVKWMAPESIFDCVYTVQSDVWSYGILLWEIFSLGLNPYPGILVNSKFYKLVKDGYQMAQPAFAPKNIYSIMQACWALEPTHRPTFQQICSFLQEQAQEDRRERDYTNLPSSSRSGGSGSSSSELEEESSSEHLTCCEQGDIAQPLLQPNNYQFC

PHKG2, sequence (P15735 whole entry): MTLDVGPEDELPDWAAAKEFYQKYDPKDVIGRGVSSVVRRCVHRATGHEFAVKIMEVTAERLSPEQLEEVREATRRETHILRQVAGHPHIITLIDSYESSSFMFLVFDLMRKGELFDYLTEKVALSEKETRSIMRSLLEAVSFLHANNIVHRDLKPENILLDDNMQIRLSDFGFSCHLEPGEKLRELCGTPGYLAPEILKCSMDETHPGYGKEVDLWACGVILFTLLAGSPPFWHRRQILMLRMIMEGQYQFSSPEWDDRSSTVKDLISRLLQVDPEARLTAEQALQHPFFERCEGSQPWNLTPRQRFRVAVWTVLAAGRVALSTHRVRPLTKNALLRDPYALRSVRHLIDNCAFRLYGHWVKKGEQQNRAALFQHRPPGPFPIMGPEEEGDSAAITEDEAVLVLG

Nc1ncc(-c2nc3ccccc3o2)c(-c2ccncc2)n1 [Comparative Compound 324, 5-(1,3-benzoxazol-2-yl)-4-(pyridine-4-yl)pyrimidin-2-amine]
remaining binding at 10 µM [1]: 100% | remaining binding at 10 µM [2]: 100% | remaining binding at 10 µM [3]: 100% | remaining binding at 10 µM [4]: 100% | remaining binding at 10 µM [5]: 100% | remaining binding at 10 µM [6]: 100% | remaining binding at 10 µM [7]: 96% | remaining binding at 10 µM [8]: 81% | remaining binding at 10 µM [9]: 100% | remaining binding at 10 µM [10]: 67% | remaining binding at 10 µM [11]: 86% | remaining binding at 10 µM [12]: 96% | remaining binding at 10 µM [13]: 96% | remaining binding at 10 µM [14]: 71% | remaining binding at 10 µM [15]: 97% | remaining binding at 10 µM [16]: 98% | remaining binding at 10 µM [17]: 100% | remaining binding at 10 µM [18]: 90% | remaining binding at 10 µM [19]: 81% | remaining binding at 10 µM [20]: 86% | remaining binding at 10 µM [21]: 100% | remaining binding at 10 µM [22]: 91% | remaining binding at 10 µM [23]: 100% | remaining binding at 10 µM [24]: 84% | remaining binding at 10 µM [25]: 94% | remaining binding at 10 µM [26]: 75% | remaining binding at 10 µM [27]: 99% | remaining binding at 10 µM [28]: 94% | remaining binding at 10 µM [29]: 82% | remaining binding at 10 µM [30]: 76% | remaining binding at 10 µM [31]: 100% | remaining binding at 10 µM [32]: 98% | remaining binding at 10 µM [33]: 60% | remaining binding at 10 µM [34]: 92% | remaining binding at 10 µM [35]: 82% | remaining binding at 10 µM [36]: 80% | remaining binding at 10 µM [37]: 70% | remaining binding at 10 µM [38]: 83% | remaining binding at 10 µM [39]: 78% | remaining binding at 10 µM [40]: 68% | remaining binding at 10 µM [41]: 65% | remaining binding at 10 µM [42]: 89% | remaining binding at 10 µM [43]: 74%

CNc1c(C(N)=O)c2ccccn2c1C(=O)c1ccc(F)cc1 [Compound A, 2-methyl-amino-3-[(4-fluorophenyl)carbonyl]indolizine-1-carboxamide]
remaining binding at 10 µM [1]: 64% | remaining binding at 10 µM [2]: 89% | remaining binding at 10 µM [3]: 100% | remaining binding at 10 µM [4]: 100% | remaining binding at 10 µM [5]: 91% | remaining binding at 10 µM [6]: 85% | remaining binding at 10 µM [7]: 100% | remaining binding at 10 µM [8]: 1.2% | remaining binding at 10 µM [9]: 78% | remaining binding at 10 µM [10]: 76% | remaining binding at 10 µM [11]: 72% | remaining binding at 10 µM [12]: 79% | remaining binding at 10 µM [13]: 87% | remaining binding at 10 µM [14]: 68% | remaining binding at 10 µM [15]: 86% | remaining binding at 10 µM [16]: 100% | remaining binding at 10 µM [17]: 95% | remaining binding at 10 µM [18]: 85% | remaining binding at 10 µM [19]: 56% | remaining binding at 10 µM [20]: 84% | remaining binding at 10 µM [21]: 84% | remaining binding at 10 µM [22]: 84% | remaining binding at 10 µM [23]: 96% | remaining binding at 10 µM [24]: 40% | remaining binding at 10 µM [25]: 59% | remaining binding at 10 µM [26]: 67% | remaining binding at 10 µM [27]: 78% | remaining binding at 10 µM [28]: 2.6% | remaining binding at 10 µM [29]: 24% | remaining binding at 10 µM [30]: 25% | remaining binding at 10 µM [31]: 100% | remaining binding at 10 µM [32]: 80% | remaining binding at 10 µM [33]: 33% | remaining binding at 10 µM [34]: 71% | remaining binding at 10 µM [35]: 83% | remaining binding at 10 µM [36]: 67% | remaining binding at 10 µM [37]: 43% | remaining binding at 10 µM [38]: 74% | remaining binding at 10 µM [39]: 77% | remaining binding at 10 µM [40]: 65% | remaining binding at 10 µM [41]: 69% | remaining binding at 10 µM [42]: 96% | remaining binding at 10 µM [43]: 87%
